From patent publication US20260083865A1, “PROSTATE SPECIFIC MEMBRANE ANTIGEN (PSMA) LIGANDS AND USE THEREOF” (priority 2022, published 2026) come the findings set out here.

Each structure is given as a SMILES string. Where two headings read alike, the source gives them in different places. Numbered stars: 1 amine (or outer) side, 2 acyl side, 3 side chain; on linkers, the order of the positions; unused ones are H or OH. Bridge positions count the residues as written; N and C are the ends. Square brackets hold non-standard residues; d marks the D form. Peptide text beside a SMILES is read from it. * marks the point of attachment. ξ: configuration not given here. X7 = O=C(O)CN1CCN(CC(=O)O)CCN(CC(=O)NC2CCN(CC(=O)*)CC2)CCN(CC(=O)O)CC1; X3 = O=C(O)CN1CCN(CC(=O)O)CCN(CC(=O)NCCCOCCOCCOCCCN*)CCN(CC(=O)O)CC1; DOTA = O=C(O)CN1CCN(CC(=O)O)CCN(CC(=O)*)CCN(CC(=O)O)CC1; Phe(3-Cl) = N[C@@H](Cc1cccc(Cl)c1)C(=O)O; Phe(4-Cl) = N[C@@H](Cc1ccc(Cl)cc1)C(=O)O; Arg(Me) = CNC(=N)NCCC[C@H](N)C(=O)O; Ethylenediamine = C(CN[*:2])N[*:1]; X1 = O=C(CC1CCN([*:1])CC1)[*:2]; NMeL = CN[C@@H](CC(C)C)C(=O)O; Suc = O=C(CCC(=O)[*:2])[*:1]; Tle = CC(C)(C)[C@H](N)C(=O)O; Isovaleryl = CC(C)CC(=O)*; 4Abz = Nc1ccc(C(=O)O)cc1; Nle = CCCC[C@H](N)C(=O)O; ξL = CC(C)CC(N)C(=O)O; Aib = CC(C)(N)C(=O)O; CO = O=C([*:1])[*:2]; X8 = O=C(CC1CCNCC1)*; βAla = NCCC(=O)O; NHBu = CCCCN*

Assay [1] has as its target T1, Fc-fusion protein of human PSMA (hPSMA-Fc) (Homo sapiens, UniProt Q04609).
T1 construct: purchased Acro Biosystems PSA-H5264
In words: Surface plasmon resonance assay (Biacore T200, single cycle kinetic). As to conditions: hPSMA-Fc, 25° C., read-out: pKD CAT (converted). In kind it is binding. In outline:
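hPSMA-Fc was captured (~1000 RU) on an Fc-binding-peptide CM5 chip, and compounds were run in single cycle kinetic mode at 25° C in HBST with 0.1% DMSO. Double-blank-corrected sensorgrams were fitted to a 1:1 Langmuir model to give KD, reported as pKD.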

For assay [2], the target named is T2, PSMA-expressing C4-2 cells (Homo sapiens, UniProt Q04609).
T2 construct: PSMA-expressing C4-2 cells (ATCC, Cat. No. CRL-3314) were cultured in RPMI-1640; host or cells: C4-2 cells
T2 sequence (Q04609 whole entry): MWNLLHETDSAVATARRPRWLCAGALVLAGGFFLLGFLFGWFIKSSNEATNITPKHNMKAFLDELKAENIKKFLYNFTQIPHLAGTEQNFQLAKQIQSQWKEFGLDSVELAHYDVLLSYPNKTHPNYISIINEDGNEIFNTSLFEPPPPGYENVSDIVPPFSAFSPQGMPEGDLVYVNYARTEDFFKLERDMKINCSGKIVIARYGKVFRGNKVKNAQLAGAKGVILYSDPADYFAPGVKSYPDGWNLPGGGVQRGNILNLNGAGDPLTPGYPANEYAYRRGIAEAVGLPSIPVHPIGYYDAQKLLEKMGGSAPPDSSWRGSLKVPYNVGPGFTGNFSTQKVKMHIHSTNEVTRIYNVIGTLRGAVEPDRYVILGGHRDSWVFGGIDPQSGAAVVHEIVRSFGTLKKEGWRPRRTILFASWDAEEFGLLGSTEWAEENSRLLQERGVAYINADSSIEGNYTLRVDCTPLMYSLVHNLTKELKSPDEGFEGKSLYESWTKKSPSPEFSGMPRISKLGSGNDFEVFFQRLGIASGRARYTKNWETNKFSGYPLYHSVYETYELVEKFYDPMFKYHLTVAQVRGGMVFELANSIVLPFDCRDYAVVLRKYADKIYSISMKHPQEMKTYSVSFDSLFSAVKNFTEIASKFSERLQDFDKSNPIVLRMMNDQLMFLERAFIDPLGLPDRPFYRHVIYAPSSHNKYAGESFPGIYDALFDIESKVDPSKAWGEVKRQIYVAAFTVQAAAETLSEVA
In words: FACS binding assay (competition with 50 nM PSM-0183). The settings on record: read-out: pIC50 [C4-2] CAT (converted). In outline: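 C4-2 cells were incubated 1 h at 4 °C with 50 nM AF488-labelled peptide PSM-0183 plus increasing test compound concentrations, then washed twice in ice-cold buffer. Median fluorescence in the AF488 channel was read by flow cytometry. IC50/pIC50 was derived by 4PL fitting of MFI versus concentration.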
(In flow cytometry, cells or beads pass a laser one at a time.)

Setting [3] is: FACS binding, PSMA-expressing C4-2 cells, pIC50 category.
[4] abbreviates: pKD category for PSMA SPR activity assay.
[5] abbreviates: pIC50 category of FACS binding, C4-2 cells.

T1 sequence (Q04609 44-750 limits assumed): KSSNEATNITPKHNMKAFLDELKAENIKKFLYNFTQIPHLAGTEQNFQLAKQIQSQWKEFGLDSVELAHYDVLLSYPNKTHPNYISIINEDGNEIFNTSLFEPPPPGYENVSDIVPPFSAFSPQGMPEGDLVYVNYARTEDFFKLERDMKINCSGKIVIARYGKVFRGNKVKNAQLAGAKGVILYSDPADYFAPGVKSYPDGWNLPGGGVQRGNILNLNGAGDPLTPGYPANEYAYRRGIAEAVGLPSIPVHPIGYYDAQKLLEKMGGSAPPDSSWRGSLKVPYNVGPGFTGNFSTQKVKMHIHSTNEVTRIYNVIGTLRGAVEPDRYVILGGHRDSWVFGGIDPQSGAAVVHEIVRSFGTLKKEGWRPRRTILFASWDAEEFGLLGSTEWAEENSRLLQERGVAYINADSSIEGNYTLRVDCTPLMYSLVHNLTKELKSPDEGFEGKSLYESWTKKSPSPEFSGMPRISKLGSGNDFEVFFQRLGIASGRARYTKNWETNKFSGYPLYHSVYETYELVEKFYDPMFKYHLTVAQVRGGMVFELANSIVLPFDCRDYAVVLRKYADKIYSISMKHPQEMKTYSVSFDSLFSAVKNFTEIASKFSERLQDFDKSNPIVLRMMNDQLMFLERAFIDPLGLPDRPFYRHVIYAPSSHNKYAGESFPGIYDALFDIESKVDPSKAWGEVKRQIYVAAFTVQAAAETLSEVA

`CC(=O)NC(C)(C)C(=O)N[C@@H](Cc1ccc(Cl)cc1)C(=O)N[C@H]1CSSC[C@@H](C(=O)N[C@H](C(=O)N[C@H](C(N)=O)[C@@H](C)O)C(C)(C)C)NC(=O)[C@H](CC(N)=O)NC(=O)[C@H](CCCCNC(=O)CN2CCC(NC(=O)CN3CCN(CC(=O)O)CCN(CC(=O)O)CCN(CC(=O)O)CC3)CC2)NC(=O)[C@H](CCCNC(=N)N)NC(=O)[C@H](CCCCN)NC1=O` [PSM-0282, Ac-Aib-Pcf-[Cys-Lys-Arg-Lys(DOTA-APAc)-Asn-Cys]-Tle-Thr-NH2] (Ac-[Aib][Phe(4-Cl)]CKRK(X7)NC[Tle]T-NH2; disulfide 3-8): the Kd in assay [1] (PSMA SPR assay, pKD category) is below 12.6 nM. Besides, the IC50 in assay [2] (setting [3]) is below 200 nM.

On to `CCCC[C@@H]1NC(=O)[C@H](CCCCN)NC(=O)[C@@H](NC(=O)[C@H](Cc2ccc(Cl)cc2)NC(=O)C(C)(C)NC(=O)[C@@H](NC(C)=O)[C@@H](C)O)CSSC[C@@H](C(=O)N[C@H](C(=O)N[C@H](C(N)=O)[C@@H](C)O)C(C)(C)C)NC(=O)[C@H](CC(N)=O)NC(=O)C(C)(C)NC1=O` [PSM-0338, Ac-Thr-Aib-Pcf-[Cys-Lys-Nle-Aib-Asn-Cys]-Tle-Thr-NH2] (Ac-T[Aib][Phe(4-Cl)]CK[Nle][Aib]NC[Tle]T-NH2; disulfide 4-9), for which the Kd in assay [1] (PSMA SPR assay, pKD category) was below 12.6 nM. For the same compound, the IC50 in assay [2] (setting [3]) was below 200 nM.

In the case of `C[C@@H](O)[C@H](NC(=O)CC1CCNCC1)C(=O)NC(C)(C)C(=O)N[C@@H](Cc1ccccc1)C(=O)N[C@H]1CSSC[C@@H](C(=O)N[C@H](C(=O)N[C@H](C(=O)N2CCC(CC(=O)N[C@H](CCCCNC(=O)CN3CCN(CC(=O)O)CCN(CC(=O)O)CCN(CC(=O)O)CC3)C(N)=O)CC2)[C@@H](C)O)C(C)(C)C)NC(=O)[C@H](CC(N)=O)NC(=O)C(C)(C)NC(=O)[C@H](CCCNC(=N)N)NC(=O)[C@H](CCCCN)NC1=O` [PSM-0378, H-Cmp-Thr-Aib-Phe-[Cys-Lys-Arg-Aib-Asn-Cys]-Tle-Thr-Cmp-lys(DOTA)-NH2] (X8-T[Aib]FCKR[Aib]NC[Tle]T[X1][dK](DOTA)-NH2; disulfide 4-9), in assay [1] (setting [4]), the Kd is below 12.6 nM. The IC50 in assay [2] (setting [5]) was below 200 nM.

For the compound `CC(=O)N[C@H](C(=O)NC(C)(C)C(=O)N[C@@H](Cc1ccccc1)C(=O)N[C@H]1CSSC[C@@H](C(=O)N[C@H](C(=O)N[C@H](C(=O)Nc2ccc(C(=O)N[C@H](CCCCNC(=O)CN3CCN(CC(=O)O)CCN(CC(=O)O)CCN(CC(=O)O)CC3)C(N)=O)cc2)[C@@H](C)O)C(C)(C)C)NC(=O)[C@H](CC(N)=O)NC(=O)C(C)(C)NC(=O)[C@H](CCCNC(=N)N)NC(=O)[C@H](CCCCN)NC1=O)[C@@H](C)O` [PSM-0471, Ac-Thr-Aib-Phe-[Cys-Lys-Arg-Aib-Asn-Cys]-Tle-Thr-Pab-lys(DOTA)-NH2] (Ac-T[Aib]FCKR[Aib]NC[Tle]T[4Abz][dK](DOTA)-NH2; disulfide 4-9), the Kd in assay [1] (setting [4]) is below 12.6 nM. Besides, the IC50 in assay [2] (setting [5]) is below 200 nM.

`CC(C)CC(NC(=O)[C@@H]1CSSC[C@H](NC(=O)[C@H](Cc2ccccc2)NC(=O)[C@H](C)NC(=O)[C@@H](NC(=O)CCC(=O)NCCCOCCOCCOCCCNC(=O)CN2CCN(CC(=O)O)CCN(CC(=O)O)CCN(CC(=O)O)CC2)[C@@H](C)O)C(=O)N[C@@H](CCCCN)C(=O)N[C@@H](CCCNC(=N)N)C(=O)N[C@@H](C)C(=O)N[C@@H](CC(N)=O)C(=O)N1)C(=O)N[C@H](C(N)=O)[C@@H](C)O` (stereo partly drawn) [PSM-0305, DOTA-Ttds-Thr-Ala-Phe-[Cys-Lys-Arg-Ala-Asn-Cys]-Lou-Thr-NH2] ({X3-Suc}-TAFCKRANC[ξL]T-NH2; disulfide 4-9): the Kd in assay [1] (PSMA SPR assay, pKD category) is 126 to 501 nM. Besides, in assay [2] (setting [3]), the IC50 is 200 to 1260 nM.

As to `C[C@@H](O)[C@H](NC(=O)CN1CCN(CC(=O)O)CCN(CC(=O)O)CCN(CC(=O)O)CC1)C(=O)NC(C)(C)C(=O)N[C@@H](Cc1ccc(Cl)cc1)C(=O)N[C@H]1CSSC[C@@H](C(=O)N[C@H](C(=O)NCCC(N)=O)C(C)(C)C)NC(=O)[C@H](CC(N)=O)NC(=O)C(C)(C)NC(=O)[C@H](CCCNC(=N)N)NC(=O)[C@H](CCCCN)NC1=O` [PSM-0216, DOTA-Thr-Aib-Pcf-[Cys-Lys-Arg-Aib-Asn-Cys]-Tle-Bal-NH2] ({DOTA}-T[Aib][Phe(4-Cl)]CKR[Aib]NC[Tle][βAla]-NH2; disulfide 4-9), the Kd in assay [1] (SPR, single cycle kinetic, category) is below 12.6 nM. Besides, the IC50 in assay [2] (FACS binding, C4-2 cells, competition with 50 nM PSM-0183, category) was below 200 nM.

For `CC(C)CC(=O)NC(C)(C)C(=O)N[C@@H](Cc1ccccc1)C(=O)N[C@H]1CSSC[C@@H](C(=O)N[C@H](C(=O)N[C@H](C(=O)N[C@H](CCCCNC(=O)CN2CCN(CC(=O)O)CCN(CC(=O)O)CCN(CC(=O)O)CC2)C(N)=O)[C@@H](C)O)C(C)(C)C)NC(=O)[C@H](CC(N)=O)NC(=O)C(C)(C)NC(=O)[C@H](CCCNC(=N)N)NC(=O)[C@H](CCCCN)NC1=O` [PSM-0292, Iva-Aib-Phe-[Cys-Lys-Arg-Aib-Asn-Cys]-Tle-Thr-lys(DOTA)-NH2] (Isovaleryl-[Aib]FCKR[Aib]NC[Tle]T[dK](DOTA)-NH2; disulfide 3-8), the Kd in assay [1] (PSMA SPR assay, pKD category) is 12.6 to 126 nM. In assay [2] (setting [3]), the IC50 was below 200 nM.

On to `CC(C)C[C@@H](C(=O)N[C@H](C(N)=O)[C@@H](C)O)N(C)C(=O)[C@@H]1CSSC[C@H](NC(=O)[C@H](Cc2ccc(Cl)cc2)NC(=O)C(C)(C)NC(=O)[C@@H](NC(=O)CC2CCN(C(=O)CN3CCN(CC(=O)O)CCN(CC(=O)O)CCN(CC(=O)O)CC3)CC2)[C@@H](C)O)C(=O)N[C@@H](CCCCN)C(=O)N[C@@H](CCCNC(=N)N)C(=O)NC(C)(C)C(=O)N[C@@H](CC(N)=O)C(=O)N1` [PSM-0497, DOTA-Cmp-Thr-Aib-Pcf-[Cys-Lys-Arg-Aib-Asn-Cys]-Nml-Thr-NH2] ({DOTA}-[X1]T[Aib][Phe(4-Cl)]CKR[Aib]NC[NMeL]T-NH2; disulfide 5-10), for which the Kd in assay [1] (setting [4]) is 126 to 501 nM. Moreover, in assay [2] (setting [5]), the IC50 was 200 to 1260 nM.

Turning to `CCCCNC(=O)N[C@H](C(=O)NC(C)(C)C(=O)N[C@@H](Cc1cccc(Cl)c1)C(=O)N[C@H]1CSSC[C@@H](C(=O)N[C@H](C(=O)N[C@H](C(=O)N2CCC(CC(=O)N[C@H](CCCCNC(=O)CN3CCN(CC(=O)O)CCN(CC(=O)O)CCN(CC(=O)O)CC3)C(N)=O)CC2)[C@@H](C)O)C(C)(C)C)NC(=O)[C@H](CC(N)=O)NC(=O)C(C)(C)NC(=O)[C@H](CCCNC(=N)N)NC(=O)[C@H](CCCCN)NC1=O)[C@@H](C)O` [PSM-0470, nBuCAyl-Thr-Aib-Mcf-[Cys-Lys-Arg-Aib-Asn-Cys]-Tle-Thr-Cmp-lys(DOTA)-NH2] ({NHBu-CO}-T[Aib][Phe(3-Cl)]CKR[Aib]NC[Tle]T[X1][dK](DOTA)-NH2; disulfide 4-9), the Kd in assay [1] (setting [4]) is below 12.6 nM. Moreover, in assay [2] (setting [5]), the IC50 was below 200 nM.

On to `CNC(=N)NCCC[C@@H]1NC(=O)[C@H](CCCCN)NC(=O)[C@@H](NC(=O)[C@H](Cc2ccc(Cl)cc2)NC(=O)C(C)(C)NC(C)=O)CSSC[C@@H](C(=O)N[C@H](C(=O)NCCNC(=O)CN2CCN(CC(=O)O)CCN(CC(=O)O)CCN(CC(=O)O)CC2)C(C)(C)C)NC(=O)[C@H](CC(N)=O)NC(=O)C(C)(C)NC1=O` [PSM-0320, Ac-Aib-Pcf-[Cys-Lys-Arg(Me)-Aib-Asn-Cys]-Tle-en-DOTA] (Ac-[Aib][Phe(4-Cl)]CK[Arg(Me)][Aib]NC[Tle]-{Ethylenediamine-DOTA}; disulfide 3-8), for which, in assay [1] (PSMA SPR assay, pKD category), the Kd is below 12.6 nM. The IC50 in assay [2] (setting [3]) was below 200 nM.
